Results as given in patent US6812218B2, “Lipid derivatives of polythiourea” (Gencell S.A., priority 2001, dated 2004).

Tests used:
plasmid pXL3031 = experiment: ethidium bromide fluorescence test of nucleic acid compaction; assay type: binding; details: conditions identical to the DT-3TU mixtures, 150 mM sodium chloride
Method: In the text which follows, the nucleic acid used was the plasmid pXL3031 described in the publication Gene Therapy (1999) 6, pp. 1482-1488, which contained the luc gene encoding luciferase under the control of the cytomegalovirus CMV E/P promoter. This plasmid is represented in FIG. 7. Its size is 3671 bp. The plasmid solution used was diluted to 1.262 g/l in water for injection.
The nucleic acid was brought into contact with increasing quantities of DT-3TU (12), by equivolumetric mixing of lipid solutions of various titers in the solutions of nucleic acid. Samples of 800 μl of nucleic acid complexes with a concentration of 0.01 μg/ml were thus prepared in a 150 mM sodium chloride solution with increasing quantities of DT-3TU (12).
In the same manner, a control was prepared by bringing the nucleic acid into contact with increasing quantities of EPC (see FIG. 1) or of DPPC (see FIG. 2), by equivolumetric mixing of lipid solutions of various titers in the solutions of nucleic acid. Samples of 800 μl of nucleic acid complexes with a concentration of […] were thus prepared in a 150 mM sodium chloride solution with increasing quantities of EPC or of DPPC (FIGS. 1 and 2 respectively).
The ethidium bromide fluorescence was measured over time (measured at 20° C.) using a FluoroMax-2 (Jobin Yvon-Spex) with excitation and emission wavelengths of 260 nm and 590 nm respectively. […]

[1] = size of the lipid/DNA particles; assay type: physicochemical; details: without lipid-PEG
Description: The use of cholesterol-PEG in the DT-3TU/DPPC formulations has the advantage of permitting the reduction of the particles to such a quantity of lipid that, in the case of the absence of lipid-PEG, would lead to aggregation. […] In order to obtain particles of this size it is necessary to use at least 40 nmol of the lipid DT-3TU/μg of DNA. Thus, the use of lipid-PEG in the formulations of the lipid DT-3TU has the advantage of reducing the quantity of DT-3TU necessary to compact the DNA and form particles whose size is smaller than 500 nm

[2] = system: tibial and cranial muscles; experiment: in vivo muscle transfection, luciferase expression; design: species or system mice C57bl/6; details: intramuscular, 3 μg of DNA, 96 hours after injection
Method: Muscles samples were taken 96 hours after the injection and the level of expression for luciferase was measured using a luminometer (wallace).
Complexes containing increasing quantities of DT-3TU lipid per μg of DNA were injected in both tibial and cranial muscles of the mice, to which electric pulsations were or were not applied (Bureau, M et al, BBA 2000).
The mice C57bl/6 had undergone previously anaesthetic with a mixture of Ketamin/Xylazine. The injection was or was not followed by the application of transcutaneous electric pulsations using electrodes placed in both ends of the muscle (Bureau, M et al, BBA 2000).
96 hours after the injection, the mice underwent euthanasia, muscles samples were taken and ground in 1 ml buffer lyse solution. After centrifugation (10 min., 12000 rpm, 4° C.), supernatant (10 μl) was taken and placed in a 96 well plate to read the luciferase after adding 50 μl of luciferase substrate. The level of luminescence was read in the supernatant using a luminometer (Wallace, Victor).

HeLa cells [3] = experiment: toxicity toward the cells, protein level after transfection; assay type: cell-based, human; details: lipoplexes with 0.75 to 20 nmol of DT-3TU per μg of DNA
Method: The protein level was measured after transfection. The transfection protocol was identical to that described in Example 8.
Briefly, the transfected cells were washed twice with 500 μl of PBS (phosphate buffer) and then lysed with 250 μl of reagent (Promega cell culture lysis reagent, of the Luciferase Assay System kit). An aliquot of 50 μl of supernatant of the lysate centrifuged (12,000×g) for 5 minutes at 4° C. was transferred into a tube in the presence of 50 μl of 0.1 M iodoacetamide, 0.1 M hydrochloric acid tris at pH 8.2 and left for 1 hour at 37° C. 20 μl of the preceding solutions were deposited in a 96-well plate and 200 μl of “BCA protein assay” reagent (Pierce, Montluson, France) were added. The plate was then centrifuged at 2500 revolutions/min and then incubated at 37° C. for 30 minutes. In parallel, a bovine serum albumin (BSA) range was prepared in order to correlate the absorbance value obtained for the samples with a quantity of protein present in the sample.

HeLa cells [4] = experiment: in vitro transfection, luciferase activity; assay type: cell-based, human; details: 10% FCS versus without serum
Method: This study was carried out for lipoplexes comprising various quantities of DT-3TU: 1.5 or 5 or 10 or 15 or 20 nmol of DT-3TU/μg of DNA. Each of these conditions was tested with and without fetal calf serum (“+Serum” or “−Serum”).
HeLa cells (American type Culture Collection (ATCC) Rockville, Md., USA) derived from a carcinoma of human cervical epithelium, were cultured in the presence of an MEM (“minimum essential medium”) type medium with addition of 2 mM L-glutamine, 50 units/ml of penicillin and 50 units/ml of streptomycin. The medium and the additives were from Gibco-BRL Life Technologies (Gaithersburg, Md., USA). The cells were cultured in flasks at 37° C. and at 5% carbon dioxide in an incubator.
one day before the transfection, the HeLa cells were transferred into […] with a cell number of 30,000 to 50,000 per well. These dilutions represent approximately 80% confluence after 24 hours. […]
Briefly, the transfected cells were washed twice with 500 μl of PBS (phosphate buffer) and then lysed with 250 μl of reagent (Promega cell culture lysis reagent, of the Luciferase Assay System kit). An aliquot of 10 μl of supernatant of the lysate centrifuged (12,000×g) for 5 minutes at 4° C. was measured with a Wallace Victor 2 luminometer (1420 Multilabel couter). […]

CCCCCCCCCCCCCCCC(=O)OC[C@H](COP(=O)([O-])OCC[N+](C)(C)C)OC(=O)CCCCCCCCCCCCCCC [DPPC, 1,2-dipalmitoyl-sn-glycero-3-phosphocholine]
decrease in fluorescence, lipid alone (control) (plasmid pXL3031): about 5%

CCCCCCCCCCCCCCN(CCCCCCCCCCCCCC)C(=O)CCC(=O)NCCNC(=S)NCCNC(=S)NCCNC(=S)NC [DT-3TU, 3-(2-{3-[2-(3-{2-[3-(ditetradecylcarbamoyl)propionylamino]ethyl}thioureido)ethyl]thioureido}ethyl)-1-methylthiourea]
quantity of lipid necessary to obtain particles inferior to 500 nm [1]: at least 40 nmol of the lipid DT-3TU/μg of DNA | level of expression (luciferase) versus background noise of control muscle [2]: > 5.0×10^4 | transfection of muscle tissues ([2]; 20 and 40 nmol of DT-3TU lipid per μg of DNA, with or without electric pulsations): significant level of transfection | toxicity toward the cells (HeLa cells [3]): no toxicity was observed | effect of the presence of serum on transfection (HeLa cells [4]): weak inhibition of transfection
